Legend:
Prolyl endopeptidase FAP [1] = biological target: T1, Prolyl endopeptidase FAP (Mus musculus, UniProt P97321); test: Inhibition Assay
T1 sequence (P97321 whole entry): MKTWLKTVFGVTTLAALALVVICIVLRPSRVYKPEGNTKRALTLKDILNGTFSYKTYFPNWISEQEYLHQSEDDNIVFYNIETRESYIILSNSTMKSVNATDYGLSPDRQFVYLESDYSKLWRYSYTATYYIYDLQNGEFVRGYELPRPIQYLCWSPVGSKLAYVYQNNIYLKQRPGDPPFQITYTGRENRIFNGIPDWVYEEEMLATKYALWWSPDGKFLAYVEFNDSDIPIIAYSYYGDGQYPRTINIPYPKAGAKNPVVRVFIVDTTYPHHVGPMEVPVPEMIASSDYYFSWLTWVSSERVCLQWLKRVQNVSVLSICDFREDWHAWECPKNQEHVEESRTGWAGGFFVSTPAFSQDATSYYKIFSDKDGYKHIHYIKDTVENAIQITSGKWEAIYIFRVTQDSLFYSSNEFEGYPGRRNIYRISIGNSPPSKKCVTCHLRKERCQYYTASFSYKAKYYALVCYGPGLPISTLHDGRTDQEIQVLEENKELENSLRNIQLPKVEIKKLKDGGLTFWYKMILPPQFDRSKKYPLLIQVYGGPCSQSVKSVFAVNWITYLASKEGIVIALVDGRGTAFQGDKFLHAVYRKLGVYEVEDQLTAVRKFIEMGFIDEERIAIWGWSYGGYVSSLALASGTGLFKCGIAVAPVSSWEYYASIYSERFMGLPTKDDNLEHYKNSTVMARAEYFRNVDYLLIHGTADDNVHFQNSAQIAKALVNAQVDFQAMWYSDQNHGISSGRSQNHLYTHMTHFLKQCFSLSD
Method: (§1) Inhibition assay of FAP. The compounds were precisely weighed (range between […]) on a micro-scale (HuberLab, Sartorius QUINTIX35-1S) and dissolved in DMSO to prepare stock solutions at 1 mM. Stock solutions were further diluted with FAP activation buffer (50 mM Tris, 100 mM NaCl, 1 mM EDTA, pH=7.4) to a final DMSO concentration of 10% v/v. 10 μL of each inhibitor were serially diluted in a 384 well plate (grenier-bio one, PS, F-bottom, Black, non-binding) with 10 μL of 10% DMSO FAP buffer (1:1 dilution). FAP (human and murine) was diluted to the desired concentration with FAP activation buffer and added to the serial dilution of inhibitor (10 μL for each well). Each protein-inhibitor solution was incubated for 30 minutes at room temperature. Each measurement was performed with an enzyme concentration (FAP) lower than the expected IC50. A 60 μM solution of substrate (Z-Gly-Pro-AMC) in FAP activation buffer (<1% DMSO) was added to the plate (10 μL for each well). The reaction was incubated from 1 minute to 48 hours at room temperature (22° C.-25° C.). The emission was read at 465 nm (excitation wavelength 360 nm) for 40 μs by Tecan Spark (s.n. 1808004082). […]

Prolyl endopeptidase FAP [2] = biological target: T2, Prolyl endopeptidase FAP (Homo sapiens, UniProt Q12884); test: Inhibition Assay
T2 sequence (Q12884 whole entry): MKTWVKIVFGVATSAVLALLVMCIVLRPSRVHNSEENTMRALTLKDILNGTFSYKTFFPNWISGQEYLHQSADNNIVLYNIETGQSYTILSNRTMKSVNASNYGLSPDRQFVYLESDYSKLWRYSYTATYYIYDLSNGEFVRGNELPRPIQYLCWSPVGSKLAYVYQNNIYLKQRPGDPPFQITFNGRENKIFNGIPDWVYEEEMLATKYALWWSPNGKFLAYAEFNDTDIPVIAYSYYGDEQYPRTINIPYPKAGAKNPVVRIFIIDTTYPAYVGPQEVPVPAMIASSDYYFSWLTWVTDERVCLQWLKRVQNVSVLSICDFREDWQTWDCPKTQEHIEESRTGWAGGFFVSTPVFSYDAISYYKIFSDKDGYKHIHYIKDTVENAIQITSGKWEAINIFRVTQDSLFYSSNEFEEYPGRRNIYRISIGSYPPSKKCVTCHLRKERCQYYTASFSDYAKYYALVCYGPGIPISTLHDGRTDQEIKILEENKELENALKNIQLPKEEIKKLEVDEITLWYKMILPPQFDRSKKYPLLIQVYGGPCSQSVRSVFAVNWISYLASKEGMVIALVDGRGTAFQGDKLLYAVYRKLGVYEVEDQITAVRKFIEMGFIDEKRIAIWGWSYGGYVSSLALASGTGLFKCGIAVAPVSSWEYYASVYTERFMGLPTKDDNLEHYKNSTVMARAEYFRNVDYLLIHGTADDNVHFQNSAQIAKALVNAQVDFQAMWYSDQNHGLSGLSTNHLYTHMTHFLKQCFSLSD
Method: as §1

Q: How did the IC50 (Prolyl endopeptidase FAP [1]) turn out when `C#CC[C@H](NC(=O)[C@H](CCCNC(=N)N(C)C)NC(=O)c1coc(CNC(=O)CCC(=O)N2CC(F)(F)C[C@H]2C#N)c1)C(=O)N[C@@H](CCCCN)C(=O)O` [US20250177582, Compound 2] was run?
A: 29.2 nM

Q: And the IC50 (Prolyl endopeptidase FAP [2])?
A: 44.1 nM
